What was measured:
[1] = cited from earlier work
[2] = Solubility of Drugs in single solvent alcohols; assay type: physicochemical
Method: Briefly, the indicated NSAID was weighed and added to a beaker. To each beaker, incremental amounts of the indicated solvent was weighed and added. The beakers were sealed with aluminum foil and placed at room temperature or in a 35 C water bath for 20-30 minutes. They beakers were shaken frequently to mix the contents. After 20-30 minutes the solvent alcohols were examined. If a single phasic solution was not yet achieved, an additional aliquot of the solvent was added and the cycle was repeated until complete solvation had occurred.

[3] = cited from earlier work; remark: listed apart in the source
[4] = Super-solvent effect (Drug solubilized by combinations of solvent alcohols); assay type: physicochemical
Method: Methods. First, the amount of each solvent alcohol required to solubilize one gram of NSAID was determined (saturation amount). Next, each combination of 2, 3 and 4 solvent alcohols were made using the saturation amounts determined by the first step. Finally, the amount of drug that could be solubilized by the solvent systems (i.e. the solvent alcohol combinations) was determined. The super-solvent effect was determined using this protocol, where percent=actual grams solubilized divided by the predicted grams (based upon the first step) expressed as percent increase (e.g. if twice the predicted amount could be solubilized, the super-solvent effect would be % 100.

[5] = Maximal NSAID and water concentrations in PG/PEG solvent systems; assay type: physicochemical; design: B maximum: unit not given here
Text: With the teaching herein, useful Drug and water concentrations can be determined for a given solvent system. Such concentrations can be described by the equation W=mD+b, where W is a water concentration, D is the Drug concentration, b is the y intercept, and m is the slope.

In the case of `COc1ccc2c(c1)c(CC(=O)O)c(C)n2C(=O)c1ccc(Cl)cc1` [Indomethacin], the “Log P” value [1] is listed as 3.08, the “Maximum Drug Concentration in single alcohol: EtOH” value (shortened to “Maximum Drug Concentration … EtOH”) ([2]; Solubility at Room Temperature) is listed as 0.25 and the “Maximum Drug Concentration in single alcohol: IPA” value (“Maximum Drug Concentration … IPA” for short) ([2]; Solubility at Room Temperature) is listed as 0.10. For the same compound, the “Maximum Drug Concentration in single alcohol: PEG” value (“Maximum Drug Concentration … PEG” for short) ([2]; Solubility at Room Temperature) was 0.05 and the “Maximum Drug Concentration in single alcohol: PG” value (shortened to “Maximum Drug Concentration … PG”) ([2]; Solubility at Room Temperature) was 0.05.
For `O=C(O)c1cccnc1Nc1cccc(C(F)(F)F)c1` [Niflumic], the “Maximum Drug Concentration … EtOH” value ([2]; Solubility at Room Temperature) was 3.23.
With `CCCCOc1ccc(CC(=O)NO)cc1` [Bufexamac] the “Maximum Drug Concentration … EtOH” value ([2]; Solubility at Room Temperature) was 1.23 and the “Maximum Drug Concentration … IPA” value ([2]; Solubility at Room Temperature) was 0.62.
For `CN1C(C(=O)Nc2ccccn2)=C(O)c2ccccc2S1(=O)=O` [piroxicam], the pKa [3] is given as 3.6 and the “Log P” value [1] is given as 1.8.
In the case of `CC(C(=O)O)c1ccc(C(=O)c2ccccc2)s1` (stereo not drawn) [tiaprofenic acid], the pKa [3] is given as 4.05.
In the case of `O=C(O)c1ccccc1Nc1cccc(C(F)(F)F)c1` [flufenamic acid], the “Log P” value [1] is given as 5.62.
In the case of `C=CCOc1ccc(CC(=O)O)cc1Cl` [alclofenac], the pKa [3] is listed as 4.26 and the “Log P” value [1] is listed as 2.47.
With `CC(=O)Nc1ccc(O)cc1` [Acetaminophen] the “Super-solvent Effect” value ([4]; EtOH 5 gr, IPA 11 gr) was 21.6%, the “Super-solvent Effect” value ([4]; PEG 400 9 gr, EtOH 5 gr) was 60.0% and the “Super-solvent Effect” value ([4]; PEG 400 9 gr, EtOH 5 gr, IPA 11 gr) was 55.6%. The “Super-solvent Effect” value ([4]; PEG 400 9 gr, IPA 11 gr) was 63.8%, the “Super-solvent Effect” value ([4]; PG 9 gr, EtOH 5 gr) was 21.2% and the “Super-solvent Effect” value ([4]; PG 9 gr, EtOH 5 gr, IPA 11 gr) was 14.6%. For the same compound, the “Super-solvent Effect” value ([4]; PG 9 gr, IPA 11 gr) was 22.2%, the “Super-solvent Effect” value ([4]; PG 9 gr, PEG 400 9 gr) was 22.0% and the “Super-solvent Effect” value ([4]; PG 9 gr, PEG 400 9 gr, EtOH 5 gr) was 41.8%. The “Super-solvent Effect” value ([4]; PG 9 gr, PEG 400 9 gr, EtOH 5 gr, IPA 11 gr) was 52.5%, the “Super-solvent Effect” value ([4]; PG 9 gr, PEG 400 9 gr, IPA 11 gr) was 43.3% and the “Maximum Drug Concentration … EtOH” value ([2]; Solubility at 35 C) was 16.67. The “Maximum Drug Concentration … IPA” value ([2]; Solubility at 35 C) was 8.33, the “Maximum Drug Concentration … PEG” value ([2]; Solubility at 35 C) was 10.00 and the “Maximum Drug Concentration … PG” value ([2]; Solubility at 35 C) was 10.00. For the same compound, the “Maximum Drug Concentration … EtOH” value ([2]; Solubility at Room Temperature) was 9.52, the “Maximum Drug Concentration … IPA” value ([2]; Solubility at Room Temperature) was 4.35 and the “Maximum Drug Concentration … PEG” value ([2]; Solubility at Room Temperature) was 5.41. The “Maximum Drug Concentration … PG” value ([2]; Solubility at Room Temperature) was 4.76, the B maximum ([5]; PG/PEG 1/3, b of y = −5.7055x + b) was 100 and the B maximum ([5]; PG/PEG 1/4, b of y = −6.4787x + b) was 118. The B maximum ([5]; PG/PEG 2/2, b of y = −11.52x + b) was 154, the B maximum ([5]; PG/PEG 3/4, b of y = −7.7243x + b) was 124 and the B maximum ([5]; PG/PEG 4/3, b of y = −6.3927x + b) was 102.
In the case of `O=C(O)Cc1ccccc1Nc1c(Cl)cccc1Cl` [Diclofenac], the “Super-solvent Effect” value ([4]; PEG 400 11 gr, EtOH 6 gr) is reported as 81.0%, the “Super-solvent Effect” value ([4]; PG 6 gr, EtOH 6 gr) is reported as 90.9% and the “Super-solvent Effect” value ([4]; PG 6 gr, PEG 400 11 gr) is reported as 62.2%. For the same compound, the “Super-solvent Effect” value ([4]; PG 6 gr, PEG 400 11 gr, EtOH 6 gr) was 54.8%, the “Maximum Drug Concentration … EtOH” value ([2]; Solubility at 35 C) was 14.29 and the “Maximum Drug Concentration … PEG” value ([2]; Solubility at 35 C) was 8.33. The “Maximum Drug Concentration … PG” value ([2]; Solubility at 35 C) was 14.29, the “Maximum Drug Concentration … EtOH” value ([2]; Solubility at Room Temperature) was 11.11 and the “Maximum Drug Concentration … PEG” value ([2]; Solubility at Room Temperature) was 7.69. For the same compound, the “Maximum Drug Concentration … PG” value ([2]; Solubility at Room Temperature) was 14.29.
With `COc1ccc2cc([C@H](C)C(=O)O)ccc2c1` [Naproxen] the “Water Added Until Precipitation Occurs” value ([5]; Naproxen 0.1215 gm, PG 2 gm, PEG 400 2 gm) was 3.5 gm, the “Water Added Until Precipitation Occurs” value ([5]; Naproxen 0.1755 gm, PG 1 gm, PEG 400 3 gm) was 3.5 gm and the “Water Added Until Precipitation Occurs” value ([5]; Naproxen 0.1755 gm, PG 4 gm, PEG 400 3 gm) was 5 gm. For the same compound, the “Water Added Until Precipitation Occurs” value ([5]; Naproxen 0.2295 gm, PG 3 gm, PEG 400 4 gm) was 6.5 gm, the “Water Added Until Precipitation Occurs” value ([5]; Naproxen 0.27 gm, PG 1 gm, PEG 400 4 gm) was 4.5 gm and the “Water Added Until Precipitation Occurs” value ([5]; Naproxen 0.324 gm, PG 2 gm, PEG 400 2 gm) was 1 gm. For the same compound, the “Water Added Until Precipitation Occurs” value ([5]; Naproxen 0.405 gm, PG 2 gm, PEG 400 2 gm) was 0.5 gm, the “Water Added Until Precipitation Occurs” value ([5]; Naproxen 0.468 gm, PG 1 gm, PEG 400 3 gm) was 1 gm and the “Water Added Until Precipitation Occurs” value ([5]; Naproxen 0.468 gm, PG 4 gm, PEG 400 3 gm) was 2.5 gm. For the same compound, the “Water Added Until Precipitation Occurs” value ([5]; Naproxen 0.54 gm, PG 1 gm, PEG 400 4 gm) was 2.5 gm, the “Water Added Until Precipitation Occurs” value ([5]; Naproxen 0.585 gm, PG 1 gm, PEG 400 3 gm) was 0.5 gm and the “Water Added Until Precipitation Occurs” value ([5]; Naproxen 0.585 gm, PG 4 gm, PEG 400 3 gm) was 1.5 gm. For the same compound, the “Water Added Until Precipitation Occurs” value ([5]; Naproxen 0.612 gm, PG 3 gm, PEG 400 4 gm) was 2.5 gm, the “Water Added Until Precipitation Occurs” value ([5]; Naproxen 0.675 gm, PG 1 gm, PEG 400 4 gm) was 1 gm and the “Water Added Until Precipitation Occurs” value ([5]; Naproxen 0.765 gm, PG 3 gm, PEG 400 4 gm) was 1.5 gm. The “Drug concentration range obtained at saturation” value ([5]; PG and PEG 50% to 82%, PG to PEG ratio 0.33 to 1.3) was “up to 13%”, the “B maximum (intercept of water versus Naproxen line)” value ([5]; PG/PEG 1/3) was 52.794 and the “B maximum (intercept of water versus Naproxen line)” value ([5]; PG/PEG 1/4) was 47.637. For the same compound, the “B maximum (intercept of water versus Naproxen line)” value ([5]; PG/PEG 2/2) was 54.158, the “B maximum (intercept of water versus Naproxen line)” value ([5]; PG/PEG 3/4) was 52.964 and the “B maximum (intercept of water versus Naproxen line)” value ([5]; PG/PEG 4/3) was 56.913.
For `Cc1cccc(Nc2ccccc2C(=O)O)c1C` [mefenamic acid], the pKa [3] is listed as 3.69 and the “Log P” value [1] is listed as 5.12.
In the case of `O=C(O)Cc1ccc(-c2ccccc2)cc1` [felbinac], the pKa [3] is given as 4.29.
